test system: UT7/EPO Cell line; assay: Cell Proliferation Assay (UT7/EPO, ViaLight Plus); format: cell-based, human; conditions: proliferative effect; compounds at 10 uM; UT7/EPO cells starved of EPO overnight; 72 hours at 37° C.; ViaLight Plus kit
Method: The primary testing for the examplfied compounds was performed in UT7/EPO Cell line. UT7/EPO is human leukemia cell line, obtained from Dr. Norio Komatsu (Blood, Vol 82 (2), pp 456-464, 1993). These cells express endogenous EPO receptor and are dependant upon EPO for growth and proliferation. Briefly, the cells were starved of EPO overnight and plated in 96 or 384 well plates. The compounds were added to the cells at 10 uM concentration. The plates were then incubated at 37° C. for 72 hours. The proliferative effect of the compounds was measured by a commercially available kit from Lonza (ViaLight Plus).

Structure (SMILES) | Activity (%)
O=C(Nc1ccc2[nH]c(-c3ccc(N4CCOCC4)nc3)nc2c1)c1ccc(N2CCOCC2)cc1 [Compound 256, 4-morpholino-N-(2-(6-morpholinopyridin-3-yl)-1H-benzo[d]imidazol-5-yl)benzamide] | 12
COc1ccc(/C=C/c2nc3cc(-c4ccc5nc(/C=C/c6ccc(OC)cc6)[nH]c5c4)ccc3[nH]2)cc1 [Compound 262, 2,2′-bis((E)-4-methoxystyryl)-1H,3′H-5,5′-bibenzo[d]imidazole] | 20
O=C(Nc1ccc2[nH]c(-c3cccc(-c4nc5cc(NC(=O)c6ccc(N7CCCC7)cc6)ccc5[nH]4)c3)nc2c1)c1ccc(N2CCCC2)cc1 [Compound 268, N,N′-(2,2′-(1,3-phenylene)bis(1H-benzo[d]imidazole-5,2-diyl))bis(4-(pyrrolidin-1-yl)benzamide)] | 15
CN(C)c1ccc(-c2nc3cc(NC(=O)c4ccc(C(=O)NN)cc4)ccc3[nH]2)cc1 [Compound 273, N-(2-(4-(dimethylamino)phenyl)-1H-benzo[d]imidazol-5-yl)-4-(hydrazinecarbonyl)benzamide] | 16
COc1cccc(/C=N/NC(=O)c2ccc(C(=O)Nc3ccc4nc(-c5ccc(N(C)C)cc5)[nH]c4c3)cc2)c1 [Compound 278, (E)-N-(2-(4-(dimethylamino)phenyl)-1H-benzo[d]imidazol-6-yl)-4-(2-(3-methoxybenzylidene)hydrazinecarbonyl)benzamide] | 23
CN(C)c1ccc(-c2nc3cc(C(=O)Nc4ccc(NC(=O)c5ccc6[nH]c(-c7ccc(N(C)C)cc7)nc6c5)cc4)ccc3[nH]2)cc1 [Compound 283, N,N′-(1,4-phenylene)bis(2-(4-(dimethylamino)phenyl)-1H-benzo[d]imidazole-5-carboxamide)] | 19
O=C(Nc1ccc2[nH]c(-c3ccc(N4CCOCC4)cc3)nc2c1)c1ccc2nc(-c3ccc(N(CCO)CCO)cc3)[nH]c2c1 [Compound 288, 2-(4-(bis(2-hydroxyethyl)amino)phenyl)-N-(2-(4-morpholinophenyl)-1H-benzo[d]imidazol-5-yl)-1H-benzo[d]imidazole-6-carboxamide] | 17
N#Cc1ccc(-c2nc3ccc(C(=O)Nc4ccc5[nH]c(-c6ccc(OCCO)cc6)nc5c4)cc3[nH]2)cc1 [Compound 294, 2-(4-cyanophenyl)-N-(2-(4-(2-hydroxyethoxy)phenyl)-1H-benzo[d]imidazol-5-yl)-1H-benzo[d]imidazole-6-carboxamide] | 11
O=C(Nc1ccc2[nH]c(-c3ccc(N4CCOCC4)cc3)nc2c1)c1ccc2nc(-c3ccc(OCCO)cc3)[nH]c2c1 [Compound 299, 2-(4-(2-hydroxyethoxy)phenyl)-N-(2-(4-morpholinophenyl)-1H-benzo[d]imidazol-5-yl)-1H-benzo[d]imidazole-6-carboxamide] | 15
CN(C)c1ccc(C(=O)Nc2ccc(C(O)c3ccc(NC(=O)c4ccc(N(C)C)cc4)cc3)cc2)cc1 [Compound 305, N,N′-((hydroxymethylene)bis(4,1-phenylene))bis(4-(dimethylamino)benzamide)] | 18
CN(C)c1ccc(C(=O)Nc2ccc(C(=NOC(=O)Cc3ccccc3)c3ccc(NC(=O)c4ccc(N(C)C)cc4)cc3)cc2)cc1 [Compound 310, N,N′-((((2-phenylacetoxy)imino)methylene)bis(4,1-phenylene))bis(4-(dimethylamino)benzamide)] | 22
CON=C(c1ccc(NC(=O)c2ccc(N3CCC(O)C3)cc2)cc1)c1ccc(NC(=O)c2ccc(N3CCC(O)C3)cc2)cc1 (centres unmarked) [Compound 315, N,N′-(((methoxyimino)methylene)bis(4,1-phenylene))bis(4-(3-hydroxypyrrolidin-1-yl)benzamide)] | 16
O=C(Nc1ccc(C(=O)c2ccc(NC(=O)c3ccc(N4CCCCC4)cc3)cc2)cc1)c1ccc(N2CCCCC2)cc1 [Compound 322, N,N′-(carbonylbis(4,1-phenylene))bis(4-(piperidin-1-yl)benzamide)] | 20
O=C(Nc1ccc(C(=O)c2ccc(NC(=O)c3ccc(N(CCO)CCO)cc3)cc2)cc1)c1ccc(N(CCO)CCO)cc1 [Compound 327, N,N′-(carbonylbis(4,1-phenylene))bis(4-(bis(2-hydroxyethyl)amino)benzamide)] | 17
CON=C(c1ccc(NC(=O)c2ccc(N(C)CCO)cc2)cc1)c1ccc(NC(=O)c2ccc(N(C)CCO)cc2)cc1 [Compound 332, N,N′-(((methoxyimino)methylene)bis(4,1-phenylene))bis(4-((2-hydroxyethyl)(methyl)amino)benzamide)] | 18
CON=C(c1ccc(NC(=O)c2ccc(N3CCN(C(=O)C4CC4)CC3)cc2)cc1)c1ccc(NC(=O)c2ccc(N3CCN(C(=O)C4CC4)CC3)cc2)cc1 [Compound 338, N,N′-(((methoxyimino)methylene)bis(4,1-phenylene))bis(4-(4-(cyclopropanecarbonyl)piperazin-1-yl)benzamide)] | 19
O=C(Nc1ccc(C(=O)c2ccc(NC(=O)c3ccc4[nH]ccc4c3)cc2)cc1)c1ccc2[nH]ccc2c1 [Compound 345, N,N′-(4,4′-Carbonylbis(4,1-phenylene))bis(1H-indole-5-carboxamide)] | 19
CC(=O)Nc1ccc(C(=O)c2ccc(NC(=O)c3ccc4c(ccn4C)c3)cc2)cc1 [Compound 349] | 11
CN(C)c1ccc(C(=O)Nc2ccc(C(=O)c3ccc(NC(=O)c4ccc(F)cc4)cc3)cc2)cc1 [Compound 354, 4-(Dimethylamino)-N-(4-(4-(4-fluorobenzamido)benzoyl)phenyl)benzamide] | 20
O=C(Nc1ccc(C(=O)c2ccc(NC(=O)C3CC3)cc2)cc1)c1ccc(N2CCOCC2)cc1 [Compound 359] | 19
O=C(Nc1ccc(Nc2ccc(NC(=O)c3ccc(N4CCC(O)CC4)cc3)cc2)cc1)c1ccc(N2CCC(O)CC2)cc1 [Compound 364, N,N′-(4,4′-Azanediylbis(4,1-phenylene))bis(4-(4-hydroxypiperidino)benzamide)] | 16
CN(C)c1ccc(C(=O)Nc2ccc(-n3ccc4cc(NC(=O)c5ccc(N(C)C)cc5)ccc43)cc2)cc1 [Compound 370, N-(1-(4-(4-Dimethylaminobenzamido)phenyl)-1H-indol-5-yl)-4-dimethylaminobenzamide] | 18
CN(C)c1ccc(C(=O)Nc2ccc3c(cnn3-c3ccc(NC(=O)c4ccccc4)cc3)c2)cc1 [Compound 375, N-(1-(4-Benzamidophenyl)-1H-indazol-5-yl)-4-dimethylaminobenzamide] | 11
Nc1ccc(-n2ncc3cc(NC(=O)c4ccc(N5CCOCC5)cc4)ccc32)cc1 [Compound 381, N-(1-(4-Aminophenyl)-1H-indazol-5-yl)-4-morpholinobenzamide] | 15
CN(C)c1ccc(C(=O)Nc2ccc(-n3ncc4cc(NC(=O)C5CC5)ccc43)cc2)cc1 [Compound 384, N-(4-(5-(cyclopropanecarboxamido)-1H-indazol-1-yl)phenyl)-4-(dimethylamino)benzamide] | 11
N#Cc1ccc(-n2ncc3cc(NC(=O)c4ccc(N5CCC(O)CC5)cc4)ccc32)cc1 [Compound 404, N-(1-(4-Cyanophenyl)-1H-indazol-5-yl)-4-(4-hydroxypiperidino)benzamide] | 14

— US9144557B2, “Hematopoietic growth factor mimetic small molecule compounds and their uses” (Ligand Pharmaceuticals Inc., priority 2009, dated 2015)
